Measurements published in ChEMBL document CHEMBL5316313, “Discovery of Novel 3-Phenylpiperidine Derivatives Targeting the β-Catenin/B-Cell Lymphoma 9 Interaction as a Single Agent and in Combination with the Anti-PD-1 Antibody for the Treatment of Colorectal Cancer” (J Med Chem, 2023).

Columns and labels:
[1] = target: T1, beta-catenin-B-cell lymphoma 9 protein complex (Homo sapiens, UniProt P35222); assay: Inhibition of N-terminal His6-tagged full-length recombinant beta-catenin (1 to 781 residues) (unknown origin) expressed in Escherichia coli BL21 DE3/N-terminal FAM tagged BCL9 HD2(350 to 375 residues) (unknown origin) protein-protein interaction assessed as inhibition constant incubated for 3 hrs by competitive fluorescence polarization assay
T1 sequence (P35222 whole entry): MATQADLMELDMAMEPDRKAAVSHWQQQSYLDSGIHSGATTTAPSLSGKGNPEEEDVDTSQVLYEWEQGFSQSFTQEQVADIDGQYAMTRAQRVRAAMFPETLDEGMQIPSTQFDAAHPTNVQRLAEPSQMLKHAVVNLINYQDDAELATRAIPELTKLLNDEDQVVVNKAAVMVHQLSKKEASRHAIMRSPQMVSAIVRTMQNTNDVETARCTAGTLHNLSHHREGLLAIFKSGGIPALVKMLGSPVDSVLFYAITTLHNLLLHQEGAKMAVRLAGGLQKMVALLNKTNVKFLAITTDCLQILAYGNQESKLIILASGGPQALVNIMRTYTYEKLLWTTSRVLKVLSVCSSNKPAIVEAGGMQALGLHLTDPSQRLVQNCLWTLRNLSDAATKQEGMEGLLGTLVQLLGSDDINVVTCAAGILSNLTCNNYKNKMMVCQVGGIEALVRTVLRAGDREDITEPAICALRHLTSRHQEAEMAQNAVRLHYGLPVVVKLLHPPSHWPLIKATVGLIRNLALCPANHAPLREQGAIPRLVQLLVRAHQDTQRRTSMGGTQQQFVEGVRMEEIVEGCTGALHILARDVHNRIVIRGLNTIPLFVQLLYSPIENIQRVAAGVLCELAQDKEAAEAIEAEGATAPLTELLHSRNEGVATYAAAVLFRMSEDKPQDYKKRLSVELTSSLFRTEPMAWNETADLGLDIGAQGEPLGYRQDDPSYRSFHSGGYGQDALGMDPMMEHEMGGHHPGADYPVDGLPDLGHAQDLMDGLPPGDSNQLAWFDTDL
T1 sequence (O00512 whole entry): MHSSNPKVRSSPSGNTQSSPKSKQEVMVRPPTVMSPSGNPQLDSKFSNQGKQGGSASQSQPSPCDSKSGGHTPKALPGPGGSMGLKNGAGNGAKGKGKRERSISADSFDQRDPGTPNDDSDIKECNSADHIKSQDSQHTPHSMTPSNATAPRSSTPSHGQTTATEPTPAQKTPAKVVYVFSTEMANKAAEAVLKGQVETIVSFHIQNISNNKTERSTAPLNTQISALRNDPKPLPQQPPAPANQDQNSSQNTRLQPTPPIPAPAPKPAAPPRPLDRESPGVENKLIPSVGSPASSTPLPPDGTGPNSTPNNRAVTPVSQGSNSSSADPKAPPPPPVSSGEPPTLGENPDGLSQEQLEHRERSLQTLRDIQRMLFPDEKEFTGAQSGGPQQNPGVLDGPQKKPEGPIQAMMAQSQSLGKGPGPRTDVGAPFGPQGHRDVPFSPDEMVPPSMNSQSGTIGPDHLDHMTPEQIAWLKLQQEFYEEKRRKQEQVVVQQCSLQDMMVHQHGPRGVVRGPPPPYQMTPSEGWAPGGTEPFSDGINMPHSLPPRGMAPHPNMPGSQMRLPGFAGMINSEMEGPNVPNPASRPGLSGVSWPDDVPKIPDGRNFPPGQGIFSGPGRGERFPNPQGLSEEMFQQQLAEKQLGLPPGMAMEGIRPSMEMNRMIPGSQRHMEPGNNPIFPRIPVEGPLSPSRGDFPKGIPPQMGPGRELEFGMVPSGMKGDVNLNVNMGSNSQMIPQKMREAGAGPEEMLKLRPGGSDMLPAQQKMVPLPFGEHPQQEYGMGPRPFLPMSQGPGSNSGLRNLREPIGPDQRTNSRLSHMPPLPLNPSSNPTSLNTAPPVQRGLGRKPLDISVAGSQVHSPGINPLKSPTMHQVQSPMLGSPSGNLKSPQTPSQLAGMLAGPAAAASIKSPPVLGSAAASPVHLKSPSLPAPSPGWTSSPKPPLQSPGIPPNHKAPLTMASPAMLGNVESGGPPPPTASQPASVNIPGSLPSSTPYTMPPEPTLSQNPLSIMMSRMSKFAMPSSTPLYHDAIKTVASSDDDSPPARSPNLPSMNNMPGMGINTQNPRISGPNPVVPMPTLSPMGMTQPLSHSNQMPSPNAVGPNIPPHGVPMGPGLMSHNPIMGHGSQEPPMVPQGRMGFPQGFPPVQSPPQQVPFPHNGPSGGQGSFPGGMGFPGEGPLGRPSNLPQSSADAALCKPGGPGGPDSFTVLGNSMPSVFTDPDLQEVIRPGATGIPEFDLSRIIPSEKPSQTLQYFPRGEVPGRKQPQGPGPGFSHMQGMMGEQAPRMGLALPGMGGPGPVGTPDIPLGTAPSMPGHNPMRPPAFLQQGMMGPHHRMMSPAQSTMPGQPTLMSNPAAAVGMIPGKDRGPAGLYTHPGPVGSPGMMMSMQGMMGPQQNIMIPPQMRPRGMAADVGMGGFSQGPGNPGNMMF

[2] = target: T1, beta-catenin-B-cell lymphoma 9 protein complex; assay: Inhibition of beta-catenin/BCL9 protein-protein interaction in Wnt-dependent human HCT-116 cells assessed as reduction in Axin2 expression level by qRT-PCR assay; assay type: cell-based
[3] = Microsomal stability in mouse liver microsomes assessed as half life at […] and measured upto 60 mins by LC-MS/MS analysis; assay type: ADME, Microsome
[4] = Microsomal stability in mouse liver microsomes assessed as intrinsic clearance at […] and measured upto 60 mins by LC-MS/MS analysis; assay type: ADME, Microsome; details: read-out: CLH
[5] = Microsomal stability in human liver microsomes assessed as half life at […] and measured upto 60 mins by LC-MS/MS analysis; assay type: ADME, Microsome
[6] = Microsomal stability in human liver microsomes assessed as intrinsic clearance at […] and measured upto 60 mins by LC-MS/MS analysis; assay type: ADME, Microsome; details: read-out: CLH
[7] = target: T1, beta-catenin-B-cell lymphoma 9 protein complex; assay: Inhibition of FLAG tagged human beta-catenin/FLAG-tagged human BCL9 HD2 (343 to 396 residues) expressed in Escherichia coli BL21 protein-protein interaction assessed as inhibition constant by ELISA
[8] = target: T1, beta-catenin-B-cell lymphoma 9 protein complex; assay: Inhibition of beta-catenin (unknown origin)/human BCL9 (350 to 375 residues) protein-protein interaction assessed as inhibition constant by AlphaScreen assay; assay type: protein-complex assay
[9] = target: T1, beta-catenin-B-cell lymphoma 9 protein complex; assay: Inhibition of full-length recombinant beta-catenin (1 to 781 residues) (unknown origin)/N-terminal biotinylated BCL9-HD2 (unknown origin) protein-protein interaction assessed as inhibition constant incubated for 90 mins by AlphaScreen assay; assay type: protein-complex assay

| SMILES | IC50 [1] [µM] | IC50 [2] [µM] | other results |
| --- | --- | --- | --- |
| CC(C)(Oc1cccc(C2CCCN(C(=O)OCc3ccc(F)cc3F)C2)c1)C(=O)O (stereo not given) | 5.19 |  |  |
| CC(C)(Oc1cccc(C2CCCN(S(=O)(=O)c3cccc(-c4ccc5ccsc5c4)c3)C2)c1)C(=O)O (stereo not given) | 3.27 | 3.58 |  |
| CC(C)c1ccc(-c2cccc(S(=O)(=O)N3CCC[C@@H](c4cccc(OC(C)(C)C(=O)NS(=O)(=O)c5ccc(C(F)(F)F)cc5)c4)C3)c2)cc1 |  |  | half-life [3]: 14.8 min; microsomal CLint [4]: 93.4 µL/min/mg; half-life [5]: 69.3 min; microsomal CLint [6]: 20 µL/min/mg |
| Cc1ccc(-c2cccc(S(=O)(=O)N3CCCC(c4cccc(OC(C)(C)C(=O)O)c4)C3)c2)cc1C (stereo not given) | 4.63 |  |  |
| CC(C)(Oc1cccc(C2CCCN(S(=O)(=O)c3cccc(-c4ccsc4)c3)C2)c1)C(=O)O (stereo not given) | 4 |  |  |
| CC(C)(Oc1cccc(C2CCCN(C(=O)OCc3ccc4ccccc4c3)C2)c1)C(=O)O (stereo not given) | > 10 |  |  |
| CC(C)(Oc1cccc(C2CCCN(C(=O)OCC3CCCCC3)C2)c1)C(=O)O (stereo not given) | 3.9 | > 10 |  |
| CC(C)c1ccc(-c2cccc(C(=O)N3CCCC(c4cccc(OC(C)(C)C(=O)O)c4)C3)c2)cc1 (stereo not given) | > 10 |  |  |
| CC(C)c1ccc(-c2cccc(S(=O)(=O)N3CCC[C@H](c4cccc(OC(C)(C)C(=O)NS(=O)(=O)c5ccc(C(F)(F)F)cc5)c4)C3)c2)cc1 |  |  | half-life [3]: 37.7 min; microsomal CLint [4]: 36.8 µL/min/mg; half-life [5]: 21.8 min; microsomal CLint [6]: 63.6 µL/min/mg |
| COc1ccc(COC(=O)N2CCCC(c3cccc(OC(C)(C)C(=O)O)c3)C2)cc1 (stereo not given) | 5.27 |  |  |
| CC(C)(Oc1cccc(C2CCCN(C(=O)OCc3ccc4ncccc4c3)C2)c1)C(=O)O (stereo not given) | > 10 |  |  |
| COc1ccc(COC(=O)N2CCCC(c3cccc(OC(C)(C)C(=O)O)c3)C2)cc1OC (stereo not given) | 6.8 |  |  |
| CC(C)c1ccc(CNC(=O)N2CCCC(c3cccc(OC(C)(C)C(=O)O)c3)C2)cc1 (stereo not given) | 8.62 |  |  |
| CC(C)c1cc2c(c(O)c1O)[C@@]1(C(=O)O)CCCC(C)(C)[C@@H]1CC2 [CARNOSIC ACID] |  |  | Ki [7]: 3.3 µM |
| O=C(Nc1ccc(O[C@@H]2CCNC2)c(-c2ccc(F)cc2)c1)c1ccc(O[C@H]2CCNC2)c(-c2ccc(F)c(F)c2)c1 |  |  | Ki [8]: 2.1 µM |
| CC(C)(Oc1cccc(C2CCCN(S(=O)(=O)c3cccc(-c4ccc(F)c(F)c4)c3)C2)c1)C(=O)O (stereo not given) | > 10 |  |  |
| CC(C)c1ccc(COC(=O)N2CCC(c3cccc(OC(C)(C)C(=O)O)c3)CC2)cc1 | 4.86 |  |  |
| CC(C)(Oc1cccc(C2CCCN(C(=O)OCc3ccc(C(C)(C)C)cc3)C2)c1)C(=O)O (stereo not given) | > 10 |  |  |
| Cc1ccc(COC(=O)N2CCCC(c3cccc(OC(C)(C)C(=O)O)c3)C2)cc1 (stereo not given) | 6.7 |  |  |
| CC(C)(Oc1cccc(C2CCCN(C(=O)OCc3ccc(F)c(F)c3)C2)c1)C(=O)O (stereo not given) | 4.32 |  |  |
| CC1CCCN(CCCNC(=O)C2=Cc3sc4c(c3CS2)CCCC4)C1 (stereo not given) |  |  | Ki [9]: 9 µM |
| CC(C)c1ccc(/C=C/C(=O)N2CCCC(c3cccc(OC(C)(C)C(=O)O)c3)C2)cc1 (stereo not given) | 5.39 |  |  |
| CC(C)(Oc1cccc(C2CCCN(S(=O)(=O)c3cccc(C4CCCCC4)c3)C2)c1)C(=O)O (stereo not given) | > 10 |  |  |
| CC(C)(Oc1cccc(C2CCCN(S(=O)(=O)c3cccc(-c4cccs4)c3)C2)c1)C(=O)O (stereo not given) | > 10 |  |  |
| Cc1ccc(COC(=O)N2CCCC(c3cccc(OC(C)(C)C(=O)O)c3)C2)cc1C (stereo not given) | 4.2 |  |  |
| COC(=O)C(C)(C)Oc1cccc(C2CCCN(C(=O)OCc3ccc(C(C)C)cc3)C2)c1 (stereo not given) | 5.21 |  |  |
| CC(C)c1ccc(-c2cccc(S(=O)(=O)N3CCCC(c4cccc(OC(C)(C)C(=O)NS(=O)(=O)c5cccs5)c4)C3)c2)cc1 (stereo not given) |  |  | half-life [3]: 5.75 min; microsomal CLint [4]: 241 µL/min/mg; half-life [5]: 6.17 min; microsomal CLint [6]: 225 µL/min/mg |

The next lines start with results.

| IC50 [1] [µM] | IC50 [2] [µM] | SMILES | other results |
| --- | --- | --- | --- |
| 2.47 | 1.33 | CC(C)c1ccc(-c2cccc(S(=O)(=O)N3CCCC(c4cccc(OC(C)(C)C(=O)NS(=O)(=O)c5cccc(C(F)(F)F)c5)c4)C3)c2)cc1 (stereo not given) |  |
| 3.14 | 1.31 | CC(C)(Oc1cccc(C2CCCN(S(=O)(=O)c3cccc(-c4ccc(C(C)(C)C)cc4)c3)C2)c1)C(=O)O (stereo not given) |  |
| 1.27 | 1.13 | CC(C)c1ccc(-c2cccc(S(=O)(=O)N3CCCC(c4cccc(OC(C)(C)C(=O)NS(=O)(=O)c5cccc(C#N)c5)c4)C3)c2)cc1 (stereo not given) |  |
| 4.47 |  | COc1ccc(S(=O)(=O)NC(=O)C(C)(C)Oc2cccc(C3CCCN(S(=O)(=O)c4cccc(-c5ccc(C(C)C)cc5)c4)C3)c2)cc1 (stereo not given) |  |
| 1.58 | 2.26 | CC(C)c1ccc(-c2cccc(S(=O)(=O)N3CCCC(c4cccc(OC(C)(C)C(=O)O)c4)C3)c2)cc1 (stereo not given) |  |
| 1 | 1.19 | CC(C)c1ccc(-c2cccc(S(=O)(=O)N3CCCC(c4cccc(OC(C)(C)C(=O)NS(=O)(=O)c5ccc(OC(F)(F)F)cc5)c4)C3)c2)cc1 (stereo not given) |  |
| 1.86 | 1.49 | CC(C)c1ccc(-c2cccc(S(=O)(=O)N3CCCC(c4cccc(OC(C)(C)C(=O)NS(=O)(=O)c5ccc(C#N)cc5)c4)C3)c2)cc1 (stereo not given) |  |
| 0.89 | 2.93 | CC(=O)Nc1ccc(S(=O)(=O)NC(=O)C(C)(C)Oc2cccc(C3CCCN(S(=O)(=O)c4cccc(-c5ccc(C(C)C)cc5)c4)C3)c2)cc1 (stereo not given) |  |
| 1.18 | 1.36 | CC(C)c1ccc(-c2cccc(S(=O)(=O)N3CCCC(c4cccc(OC(C)(C)C(=O)NS(=O)(=O)c5ccc(C(F)(F)F)cc5Cl)c4)C3)c2)cc1 (stereo not given) |  |
| 4.27 |  | CC(C)c1cccc(-c2cccc(S(=O)(=O)N3CCCC(c4cccc(OC(C)(C)C(=O)O)c4)C3)c2)c1 (stereo not given) |  |
| 8.3 |  | CC(C)(Oc1cccc(C2CCCN(S(=O)(=O)c3cccc(-c4ccccc4)c3)C2)c1)C(=O)O (stereo not given) |  |
| 3.76 | 10 | CC(C)c1ccc(-c2cccc(S(=O)(=O)N3CCCC(c4cccc(OC(C)(C)C(=O)NCc5ccccc5)c4)C3)c2)cc1 (stereo not given) |  |
| 1.18 | 1.1 | CC(C)c1ccc(-c2cccc(S(=O)(=O)N3CCCC(c4cccc(OC(C)(C)C(=O)NS(=O)(=O)c5ccccc5)c4)C3)c2)cc1 (stereo not given) | half-life [3]: 19.8 min; microsomal CLint [4]: 70 µL/min/mg; half-life [5]: 8.67 min; microsomal CLint [6]: 160 µL/min/mg |
